The source of these data is ChEMBL document CHEMBL2434892, “Flavones as isosteres of 4(1H)-quinolones: discovery of ligand efficient and dual stage antimalarial lead compounds” (Eur J Med Chem, 2013).

The structures appear in SMILES notation.

One data set concerns Plasmodium berghei. Briefly: Antiplasmodial activity against liver sporozoite stage of Plasmodium berghei ANKA expressing GFP infected in human HuH7 cells assessed as inhibition of parasite development after 24 hrs by qRT-PCR analysis. The format is functional, organism-based. Conditions: Huh-7, Liver. (In general: Quantitative PCR measures a nucleic acid by following its amplification.)
As to `O=c1c(-c2ccc(O)cc2)coc2cc(O)cc(O)c12` [GENISTEIN], the half-maximal inhibitory concentration (IC50) (in general, the concentration needed to halve the response being measured) turned out to be 20 µM.

Tested on in the next data set: not listed separately
As to the kind of experiment: Cytotoxicity against human HuH7 cells assessed as cell viability after 48 hrs by Alamar blue assay. The format is cell-based, Huh-7.
Settings: not given
(Alamar Blue is a resazurin reagent that responds to reducing activity.)
Regarding `Cc1ccc2c(=O)cc(-c3ccc(Oc4ccc(Cl)cc4)cc3)oc2c1`, the CC50 (in general, the concentration giving 50% cytotoxicity) at 48 h was more than 50 µM.

Regarding `Cc1cc2oc(-c3ccc(-c4ccccc4)cc3)cc(=O)c2cc1Cl`, the CC50 at 48 h is more than 90 µM. Same read-out and setting: as for `Nc1ccc(-c2ccc(-c3cc(=O)c4ccccc4o3)cc2)cn1`, the figure is more than 15 µM; as for `O=c1cc(-c2ccc(Oc3ccc(Cl)cc3)cc2)oc2ccccc12`, more than 180 µM.

For a further data set, the system named is Plasmodium berghei. As to the kind of experiment: microbe, parasite or virus in culture. Conditions: Huh-7, Liver.
Description: Antiplasmodial activity against liver sporozoite stage of Plasmodium berghei expressing luciferase and GFP infected in human HuH7 cells assessed as inhibition of parasite development incubated for 1 hr prior to parasite infection measured after 48 hrs by Alamar blue assay
The compound `Cc1ccc2c(=O)cc(-c3ccc(Oc4ccc(Cl)cc4)cc3)oc2c1` displayed an IC50 of 4.1 µM. The same measure, in the same setting: under `Cc1cc2oc(-c3ccc(-c4ccccc4)cc3)cc(=O)c2cc1Cl` stands 8.5 µM; under `Nc1ccc(-c2ccc(-c3cc(=O)c4ccccc4o3)cc2)cn1`, 1.9 µM. The same measure, in the same setting: as for `O=c1cc(-c2ccc(Oc3ccc(Cl)cc3)cc2)oc2ccccc12`, the figure is 6.2 µM.

The subject of another data set is Plasmodium falciparum. Briefly: Antiplasmodial activity against chloroquine-resistant blood stage of Plasmodium falciparum W2 infected in human RBC after 48 hrs by flow cytometric analysis. The format is functional, organism-based. Conditions: W2, 48 h. In general terms: In flow cytometry, cells or beads pass a laser one at a time.
Regarding `O=c1cc(-c2ccc(Oc3ccc(Cl)cc3)cc2)oc2ccc(Cl)cc12`, the IC50 was more than 25 µM. Still for that read-out and setting: as for `O=c1cc(-c2ccc(Oc3ccc(Cl)cc3)cc2)oc2cc(Cl)ccc12`, the figure is 12.6 µM. Still for that read-out and setting: under `Cc1ccc2c(=O)cc(-c3ccc(Oc4ccc(Cl)cc4)cc3)oc2c1` stands 19.7 µM. The same measure, in the same setting: under `Cc1cc2oc(-c3ccc(Oc4ccc(Cl)cc4)cc3)cc(=O)c2cc1Cl` stands 23.2 µM; under `Cc1cc2oc(-c3ccc(Oc4ccc(OC(F)(F)F)cc4)cc3)cc(=O)c2cc1Cl`, more than 25 µM. For `O=c1cc(-c2ccc(Oc3cccc(OC(F)(F)F)c3)cc2)oc2ccccc12`, it took 14.9 µM to reach half-maximal inhibition (IC50). Still for that read-out and setting: under `Cc1cc2oc(-c3ccc(OCCCC(F)(F)F)cc3)cc(=O)c2cc1Cl` stands 17.2 µM. `Cc1cc2oc(-c3ccc(-c4ccccc4)cc3)cc(=O)c2cc1Cl` showed an IC50 of 14 µM. The compound `O=c1c(Br)c(-c2ccc(-c3ccccc3)cc2)oc2cc(CBr)c(Cl)cc12` gave an IC50 of 5.96 µM.

`Cc1cc2oc(-c3ccc(-c4ccccc4)cc3)c(Br)c(=O)c2cc1Cl` yielded an IC50 of more than 25 µM. Same read-out and setting: under `O=c1cc(-c2ccc(-c3ccccc3)cc2)oc2ccccc12` stands more than 25 µM; under `O=c1cc(-c2ccc(-c3ccc(Cl)cc3)cc2)oc2ccccc12`, more than 10 µM. The same measure, in the same setting: as for `O=c1cc(-c2ccc(-c3ccc(F)cc3)cc2)oc2ccccc12`, the figure is more than 25 µM; as for `O=Cc1ccc(-c2ccc(-c3cc(=O)c4ccccc4o3)cc2)cc1`, more than 25 µM; as for `Nc1ccc(-c2ccc(-c3cc(=O)c4ccccc4o3)cc2)cn1`, 3.88 µM. With `O=c1cc(-c2ccc(-c3cnc4ccccc4c3)cc2)oc2ccccc12`, the IC50 was 5.17 µM. `O=c1cc(-c2ccc(Oc3ccc(Cl)cc3)cc2)oc2ccccc12` showed an IC50 of 21 µM. Still for that read-out and setting: under `O=c1cc(-c2ccc(Br)cc2)oc2ccccc12` stands more than 25 µM.
